According to ChEMBL document CHEMBL3286201, “Antileishmanial activity of a series of N²,N⁴-disubstituted quinazoline-2,4-diamines” (J Med Chem, 2014):

How the values were obtained:
[1] = Cytotoxicity against mouse J774A1 cells after 72 hrs by MTT assay; type: cell-based; details: J774.A1, 72 h
[2] = pampa, pH 7.4
Description: Passive transcellular permeability of the compound at pH 7.4 by PAMPA

Liver [3] = test: Half life in mouse liver microsomes at 1 uM after 60 mins by HPLC-MS/MS analysis; type: ADME; details: 1 h
[4] = Cmax in Swiss Webster mouse plasma at 100 umol/kg, ip; type: ADME, cell-free; set-up: dose 100 umol/kg, route intraperitoneal
[5] = Distribution coefficient, log D of the compound at pH 3; type: physicochemical; details: octanol/water
Spleen [6] = test: Cmax in Swiss Webster mouse spleen at 100 umol/kg, po; type: ADME, tissue-based; set-up: dose 100 umol/kg, route oral; details: in vivo
Spleen [7] = test: Cmax in Swiss Webster mouse spleen at 100 umol/kg, ip; type: ADME, tissue-based; set-up: dose 100 umol/kg, route intraperitoneal; details: in vivo
[8] = Aqueous solubility of the compound at pH 2; type: physicochemical; details: buffer
Spleen [9] = test: AUC (last) in Swiss Webster mouse spleen at 100 umol/kg, ip; type: ADME, tissue-based; set-up: dose 100 umol/kg, route intraperitoneal, time 0 - last; details: in vivo
Leishmania donovani [10] = test: Antileishmanial activity against clinical isolate Leishmania donovani BPK206/0 infected in mouse J774A1 cells by colorimetric assay; details: BPK206/0, J774.A1
Liver [11] = test: Cmax in Swiss Webster mouse liver at 100 umol/kg, po; type: ADME, tissue-based; set-up: dose 100 umol/kg, route oral; details: in vivo
Leishmania donovani [12] = test: Antileishmanial activity against intracellular amastigote stage of Leishmania donovani MHOM/ET/67/L82 infected in mouse J774A1 cells by colorimetric assay; type: functional, organism-based; details: MHOM/ET/67/L82, J774.A1
[13] = Elimination half life in Swiss Webster mouse plasma at 100 umol/kg, ip; type: ADME, cell-free; details: read-out: beta t1/2 (converted)
[14] = Cmax in Swiss Webster mouse plasma at 100 umol/kg, po; type: ADME, cell-free; set-up: dose 100 umol/kg, route oral
Leishmania amazonensis = test: Antileishmanial activity against intracellular amastigote stage of Leishmania amazonensis LV78 infected in mouse J774A1 cells by colorimetric assay; type: functional, organism-based; details: LV78, J774.A1
Liver [15] = test: Cmax in Swiss Webster mouse liver at 100 umol/kg, ip; type: ADME, tissue-based; set-up: dose 100 umol/kg, route intraperitoneal; details: in vivo
[16] = Distribution coefficient, log D of the compound at pH 7.4; type: physicochemical; details: octanol/water
Liver [17] = test: AUC (last) in Swiss Webster mouse liver at 100 umol/kg, po; type: ADME, tissue-based; set-up: dose 100 umol/kg, time 0 - last, route oral; details: in vivo
[18] = pampa, pH 4
Description: Passive transcellular permeability of the compound at pH 4 by PAMPA

[19] = Elimination half life in Swiss Webster mouse plasma at 100 umol/kg, po; type: ADME, cell-free
Leishmania donovani [20] = test: Antileishmanial activity against antimony-resistant clinical isolate Leishmania donovani BPK164/1 infected in mouse J774A1 cells by colorimetric assay; type: functional, organism-based; details: BPK164/1, J774.A1
Liver [21] = test: AUC (last) in Swiss Webster mouse liver at 100 umol/kg, ip; type: ADME, tissue-based; set-up: dose 100 umol/kg, time 0 - last, route intraperitoneal; details: in vivo
Mus musculus [22] = test: Toxicity in BALB/c mouse assessed as hypoactivity at 30 mg/kg, ip for 5 consecutive doses; type: organism-based; set-up: dose 30 mg/kg, route intraperitoneal; details: in vivo
[23] = AUC (last) in Swiss Webster mouse plasma at 100 umol/kg, po; type: ADME, cell-free; set-up: dose 100 umol/kg, route oral, time 0 - last
Spleen [24] = test: AUC (last) in Swiss Webster mouse spleen at 100 umol/kg, po; type: ADME, tissue-based; set-up: dose 100 umol/kg, time 0 - last, route oral; details: in vivo
[25] = AUC (last) in Swiss Webster mouse plasma at 100 umol/kg, ip; type: ADME, cell-free; set-up: dose 100 umol/kg, route intraperitoneal, time 0 - last
[26] = Aqueous solubility of the compound at pH 7.4; type: physicochemical; details: buffer
Mus musculus [27] = test: Toxicity in BALB/c mouse assessed as slowed breathing at 30 mg/kg, ip for 5 consecutive doses; type: organism-based; set-up: dose 30 mg/kg, route intraperitoneal; details: in vivo

SMILES	EC50 [1]	permeability [2]	t1/2 (Liver [3])	Cmax [4]	logD [5]	Cmax (Spleen [6])	Cmax (Spleen [7])	solubility [8]	AUClast (Spleen [9])	EC50 (Leishmania donovani [10])	Cmax (Liver [11])	EC50 (Leishmania donovani [12])	half-life [13]	Cmax [14]	EC50 (Leishmania amazonensis)	Cmax (Liver [15])	logD [16]	AUClast (Liver [17])	permeability [18]	EC50 (Leishmania donovani [20])	also measured
Cc1ccc2c(NCc3ccco3)nc(NC(C)C)nc2c1	> 33 µM	798 ×10⁻⁶ cm/s	0.157 h	2.67 µM	1.58	0.9 µM	45.8 µM	≥ 30 µM	71 µM·h	4.2 µM	5.2 µM	0.83 µM	5.4 h	0.25 µM	4.1 µM	48 µM	3.61	29 µM·h	67.2 ×10⁻⁶ cm/s	3.8 µM	half-life [19]: 20 h; AUClast (Liver [21]): 42 µM·h; Activity (Mus musculus [22]): Toxic; AUC(0-t) [23]: 2.5 µM·h; AUClast (Spleen [24]): 7.4 µM·h; AUC(0-t) [25]: 4.6 µM·h; solubility [26]: ≤ 20 µM
CCCCNc1nc(NCc2ccccc2)nc2ccccc12	4.9 µM	1020 ×10⁻⁶ cm/s	0.45 h	5.21 µM	2.86	7 µM	163 µM	≥ 30 µM	620 µM·h	2 µM	15.8 µM	0.34 µM	20 h	0.44 µM	1.4 µM	148 µM	3.84	110 µM·h	341 ×10⁻⁶ cm/s	1.4 µM	Activity (Mus musculus [27]): Toxic; AUClast (Liver [21]): 500 µM·h; AUC(0-t) [23]: 7.8 µM·h; AUClast (Spleen [24]): 68 µM·h; AUC(0-t) [25]: 11 µM·h; solubility [26]: ≤ 10 µM
